Where a name gives a salt, the structure may show the parent alone.

The values below come from US9260419B2, “Polymorphic salt of a metap-2 inhibitor and methods of making and using same” (Zafgen, Inc., priority 2012, dated 2016).

Series [1] can be described thus: challenge stability study, stability-indicating HPLC assay and physical description. The following applies: sealed vials. In kind it is physicochemical. Here is the method:
A challenge stability study was carried out with amorphous and crystalline forms. Samples were stored in sealed vials and stored at room temperature (25° C.) and 40° C. Samples were assayed at various times with a stability-indicating HPLC assay. Retained potency was determined and physical description was observed.

Series [2] can be described thus: relative stability of crystalline forms. In kind it is physicochemical.
The mark [3] stands for this setting: 25° C., 8 days, hemioxalate salt.
Where [4] appears, read: 25° C., 12 days, hemioxalate salt.
The mark [5] stands for this setting: 40° C., 5 days, hemioxalate salt.

On to `CO[C@@H]1[C@H](OC(=O)/C=C/c2ccc(OCCN(C)C)cc2)CCC2(CO2)[C@H]1C1(C)OC1CC=C(C)C` (some centres unmarked) [Amorphous, 6-O-(4-dimethylaminoethoxy)cinnamoyl fumagillol hemioxalate salt], for which the “% Purity (by peak area)” value in series [1] (setting [3]) was 86.58%; in series [1] (setting [4]) it was 83.88%; in series [1] (setting [5]) it was 86.91%; in series [1] (Time zero, hemioxalate salt), 94.98%. The “Physical Description” value in series [1] (setting [3]) was “White powder”; in series [1] (setting [4]) it was “White powder”; in series [1] (setting [5]), “White powder”; in series [1] (Time zero), “Free flowing”.

`CO[C@@H]1[C@H](OC(=O)/C=C/c2ccc(OCCN(C)C)cc2)CCC2(CO2)[C@H]1C1(C)OC1CC=C(C)C` (some centres unmarked) [Crystalline, 6-O-(4-dimethylaminoethoxy)cinnamoyl fumagillol hemioxalate salt]: the “% Purity (by peak area)” value in series [1] (setting [3]) is listed as 97.86%; in series [1] (setting [4]), 97.84%; in series [1] (setting [5]), 97.72%; in series [1] (Time zero, hemioxalate salt), 97.91%. For the same compound, the “Physical Description” value in series [1] (setting [3]), in series [1] (setting [4]), in series [1] (setting [5]) and in series [1] (Time zero) was “Free flowing” throughout.

With `CO[C@@H]1[C@H](OC(=O)/C=C/c2ccc(OCCN(C)C)cc2)CCC2(CO2)[C@H]1C1(C)OC1CC=C(C)C` (some centres unmarked) [Form B, 6-O-(4-dimethylaminoethoxy)cinnamoyl fumagillol hemioxalate], the “stability relative to Form A” value in series [2] is on record as “metastable relative to Form A”.
